Publication PMC10134273 (Cancer Medicine, 2023)
Like-named read-outs stand apart in the source and are kept apart here.

Columns and labels:
[1] = Phase 1 plasma pharmacokinetics of EVER4010001; assay type: in vivo, human
Description: (§1) After a screening period of up to 28 days, eligible patients received treatment according to a standard “3+3” dose escalation design. […] Treatment continued until unacceptable toxicity, progressive disease, and/or at the discretion of the Investigator or patient's withdrawal of consent.

[2] = DLT observation / MTD and RP2D determination (3+3 dose escalation); assay type: in vivo
Description: as §1

[3] = Experimental: Secondary endpoints included PK parameters (e.g., maximum observed concentration [C max] and area under the concentration‐time curve [AUC]). Secondary endpoints included objective response rate (ORR), disease control rate (DCR), and duration of response (DOR) as assessed by investigator per RECIST v1.1. Tumor responses were assessed according to RECIST v1.1; computerized tomography scanning or magnetic resonance imaging was performed every 6 weeks in the first 48 weeks, and every 12 weeks thereafter. Secondary endpoints also included safety and tolerability (adverse events [AEs] as defined by the National Cancer Institute‐Common Terminology Criteria for Adverse Events CTCAE v5.0) and exploratory biomarkers (total bile acids, 7‐α‐hydroxy‐4‐cholesten‐3‐one [C4] and circulating FGF19). Safety follow‐up visit was performed within 30 days (±5 days) and 90 days (±7 days) after the last dose of the study treatment.
All patients who received at least one dose of the study treatment in the Phase 1 part of the study were included in the safety and efficacy analyses. Dose escalation and MTD assessment were primarily based on DLTs which occurred within the 28‐day observation period. Descriptive statistics were used for demographics, safety, and efficacy data. The number of patients who experienced DLTs (within and outside of the 28‐day DLT assessment period) was tabulated for each dose level. The sample size of patients required for dose escalation were determined based on the ‘3+3’ design and DLTs observed as the trial progressed.

[4] = Cycle 1, Day 1, 40 mg BID (N=3) + pembrolizumab
[5] = Cycle 1, Day 1, 60 mg BID (N=3) + pembrolizumab
[6] = Cycle 1, Day 1, 80 mg BID (N=6) + pembrolizumab
[7] = Cycle 1, Day 1, 100 mg BID (N=7) + pembrolizumab
[8] = Cycle 1, Day 8, 40 mg BID (N=3) + pembrolizumab
[9] = Cycle 1, Day 8, 60 mg BID (N=3) + pembrolizumab
[10] = Cycle 1, Day 8, 80 mg BID (N=6) + pembrolizumab
[11] = Cycle 1, Day 8, 100 mg BID (N=7) + pembrolizumab
[12] = 40 mg BID (N=3) + pembrolizumab
[13] = 60 mg BID (N=3) + pembrolizumab
[14] = 80 mg BID (N=6) + pembrolizumab
[15] = 100 mg BID (N=7) + pembrolizumab

COCCNc1cc(NC(=O)N2CCCc3cc(CN4CCN(C)CC4=O)c(C=O)nc32)ncc1C#N [EVER4010001, roblitinib]
Geometric mean AUC0–t (geometric CV%) [1, 4]: 2363.64 (9.59) Hour·ng/ml
Mean t1/2 (SD) [1, 4]: 4.92 (0.16) Hour
Median tmax (Min, Max) [1, 4]: 0.550 (0.52, 1.05) Hour
Geometric mean AUC0–t (geometric CV%) [1, 5]: 4464.03 (37.96) Hour·ng/ml
Mean t1/2 (SD) [1, 5]: 4.00 (0.36) Hour
Median tmax (Min, Max) [1, 5]: 0.970 (0.93, 1.05) Hour
Geometric mean AUC0–t (geometric CV%) [1, 6]: 3774.38 (14.53) Hour·ng/ml
Mean t1/2 (SD) [1, 6]: 4.64 (1.44) Hour
Median tmax (Min, Max) [1, 6]: 1.030 (0.23, 2.00) Hour
Geometric mean AUC0–t (geometric CV%) [1, 7]: 5459.69 (8.34) Hour·ng/ml
Mean t1/2 (SD) [1, 7]: 4.22 (0.69) Hour
Median tmax (Min, Max) [1, 7]: 1.000 (0.52, 2.05) Hour
Geometric mean AUC0–t (geometric CV%) [1, 8]: 2084.60 (35.99) Hour·ng/ml
Mean Rac, drug accumulation ratio (SD) [1, 8]: 1.24 (0.25)
Mean t1/2 (SD) [1, 8]: 4.90 (2.59) Hour
Median tmax (Min, Max) [1, 8]: 1.030 (0.57, 2.00) Hour
Geometric mean AUC0–t (geometric CV%) [1, 9]: 3212.66 (27.61) Hour·ng/ml
Mean Rac, drug accumulation ratio (SD) [1, 9]: 1.31 (0.11)
Mean t1/2 (SD) [1, 9]: 5.78 (1.12) Hour
Median tmax (Min, Max) [1, 9]: 0.970 (0.93, 1.07) Hour
Geometric mean AUC0–t (geometric CV%) [1, 10]: 4284.35 (25.05) Hour·ng/ml
Mean Rac, drug accumulation ratio (SD) [1, 10]: 1.16 (0.08)
Mean t1/2 (SD) [1, 10]: 4.12 (0.90) Hour
Median tmax (Min, Max) [1, 10]: 0.990 (0.25, 1.05) Hour
Geometric mean AUC0–t (geometric CV%) [1, 11]: 6214.09 (24.13) Hour·ng/ml
Mean Rac, drug accumulation ratio (SD) [1, 11]: 1.23 (0.05)
Mean t1/2 (SD) [1, 11]: 4.97 (0.55) Hour
Median tmax (Min, Max) [1, 11]: 0.970 (0.50, 2.97) Hour
accumulation ratio (Rac) ([1]; Cycle 1 Day 8 vs Cycle 1 Day 1): around 1
steady state reached ([1]; after repeated BID dosing, based on T1/2): before Cycle 1 Day 8
Cmax ([1]; human, plasma, oral, Cycle 1, Day 1, 40 mg BID (N=3) + pembrolizumab, read-out: Geometric mean Cmax (geometric CV%)): 560 ng/mL
Cmax ([1]; human, plasma, oral, Cycle 1, Day 1, 60 mg BID (N=3) + pembrolizumab, read-out: Geometric mean Cmax (geometric CV%)): 958 ng/mL
Cmax ([1]; human, plasma, oral, Cycle 1, Day 1, 80 mg BID (N=6) + pembrolizumab, read-out: Geometric mean Cmax (geometric CV%)): 897 ng/mL
Cmax ([1]; human, plasma, oral, Cycle 1, Day 1, 100 mg BID (N=7) + pembrolizumab, read-out: Geometric mean Cmax (geometric CV%)): 1340 ng/mL
Cmax ([1]; human, plasma, oral, Cycle 1, Day 8, 40 mg BID (N=3) + pembrolizumab, read-out: Geometric mean Cmax (geometric CV%)): 427 ng/mL
Cmax ([1]; human, plasma, oral, Cycle 1, Day 8, 60 mg BID (N=3) + pembrolizumab, read-out: Geometric mean Cmax (geometric CV%)): 749 ng/mL
Cmax ([1]; human, plasma, oral, Cycle 1, Day 8, 80 mg BID (N=6) + pembrolizumab, read-out: Geometric mean Cmax (geometric CV%)): 991 ng/mL
Cmax ([1]; human, plasma, oral, Cycle 1, Day 8, 100 mg BID (N=7) + pembrolizumab, read-out: Geometric mean Cmax (geometric CV%)): 1330 ng/mL
AUC(0-t) ([1]; human, plasma, oral, Cycle 1 Day 1, range across dose levels, read-out: geometric mean AUC0–t): 2360 to 5460 ng·h/mL
Cmax ([1]; human, plasma, oral, Cycle 1 Day 1, range across dose levels, read-out: geometric mean Cmax): 560 to 1340 ng/mL
AUC(0-t) ([1]; human, plasma, oral, range across 40-100 mg BID dose levels (abstract), read-out: AUC0–t): 2370 to 5480 ng·h/mL
Cmax ([1]; human, plasma, oral, range across 40-100 mg BID dose levels (abstract), read-out: maximum observed concentration (Cmax)): 606 to 1350 ng/mL
half-life ([1]; human, plasma, oral, range across 40-100 mg BID dose levels, read-out: Mean plasma terminal half-life (T1/2)): 4 to 4.92 h
Tmax ([1]; human, plasma, oral, range across 40-100 mg BID dose levels, read-out: Median time to peak concentration (Tmax)): 0.55 to 1.03 h
DLTs during whole study: Alanine aminotransferase increased ([2]; human, in vivo): 1 (5.9) n (%)
DLTs during whole study: Aspartate aminotransferase increased ([2]; human, in vivo): 2 (11.8) n (%)
Total DLTs during whole study ([2]; human, in vivo): 2 (11.8) n (%)
DLTs within 28 days: Alanine aminotransferase increased ([2]; human, in vivo, 28 days): 1 (5.9) n (%)
DLTs within 28 days: Aspartate aminotransferase increased ([2]; human, in vivo, 28 days): 2 (11.8) n (%)
Total DLTs within 28 days ([2]; human, in vivo, 28 days): 2 (11.8) n (%)
maximum tolerated dose (MTD) ([2]; in combination with pembrolizumab 200 mg Q3W): 80 mg BID
Grade 5 TEAEs related to EVER4010001 and/or pembrolizumab [3, 12]: 0 n (%)
SAEs: Death [3, 12]: 0 n (%)
Grade 5 TEAEs related to EVER4010001 and/or pembrolizumab [3, 13]: 0 n (%)
SAEs: Death [3, 13]: 1 (33.3) n (%)
Grade 5 TEAEs related to EVER4010001 and/or pembrolizumab [3, 14]: 0 n (%)
SAEs: Death [3, 14]: 0 n (%)
Grade 5 TEAEs related to EVER4010001 and/or pembrolizumab [3, 15]: 0 n (%)
SAEs: Death [3, 15]: 0 n (%)
Grade 5 TEAEs related to EVER4010001 and/or pembrolizumab ([3]; Total (N=19)): 0 n (%)
SAEs: Death ([3]; Total (N=19)): 1 (5.3) n (%)
Any TEAE: Alanine aminotransferase increased ([3]; human, in vivo): 9 (47.4) n (%)
Any TEAE: Anemia ([3]; human, in vivo): 9 (47.4) n (%)
Any TEAE: Aspartate aminotransferase increased ([3]; human, in vivo): 11 (57.9) n (%)
